Measured values: patent US20050260290A1, “Botanical anti-inflammatory compositions and methods” (RUTGERS, THE STATE UNIVERSITY OF NEW JERSEY, priority 2004, published 2005)

Legend:
COX-2 enzyme = target: T1, COX-2 enzyme (Ovis aries, UniProt P79208); test: colorimetric COX (ovine) inhibitor screening assay, COX-2 inhibition; conditions: peaks of subfractionated paradol fraction (Method C)
T1 sequence (P79208 17-603): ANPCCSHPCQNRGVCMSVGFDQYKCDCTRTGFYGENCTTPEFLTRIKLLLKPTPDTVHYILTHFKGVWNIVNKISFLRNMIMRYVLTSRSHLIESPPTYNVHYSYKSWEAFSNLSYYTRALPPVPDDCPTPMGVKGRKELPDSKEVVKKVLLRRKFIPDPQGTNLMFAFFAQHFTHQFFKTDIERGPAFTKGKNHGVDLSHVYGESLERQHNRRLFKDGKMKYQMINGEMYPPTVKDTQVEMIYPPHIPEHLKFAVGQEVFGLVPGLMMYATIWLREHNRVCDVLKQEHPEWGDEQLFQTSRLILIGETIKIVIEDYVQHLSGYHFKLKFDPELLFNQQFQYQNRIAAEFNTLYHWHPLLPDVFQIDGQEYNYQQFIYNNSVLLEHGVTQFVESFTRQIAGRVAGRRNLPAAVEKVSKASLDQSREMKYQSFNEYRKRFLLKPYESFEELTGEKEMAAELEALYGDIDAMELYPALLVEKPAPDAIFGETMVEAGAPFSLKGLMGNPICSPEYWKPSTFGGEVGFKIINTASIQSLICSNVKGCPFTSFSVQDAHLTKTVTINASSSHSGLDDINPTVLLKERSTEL
Experimental: The anti-inflammatory extract product of Example 1 was suspended in 95 vol. % ethanol at a concentration of 1 milligram (mg) extract product per milliliter (mL) ethanol to form an A. melegueta solution. The activity of the solution was tested with a colorimetric COX (ovine) inhibitor screening assay (catalogue no. 760111, Cayman Chemical, Ann Arbor, Mich.). The screening assay measures the peroxidase activity of cyclooxygenases by monitoring the appearance of oxidized N,N,N′N′-tetramethyl-p-phenylenediamine (TMPD) at 590 nm as previously described [Kulmacz, Prostaglandins, 25:531-540 (1983)]. A (relatively) higher TMPD concentration corresponds to a greater absorbance at 590 nm, a greater peroxidase activity, and a greater COX-2 activity (corresponding to the degree of inhibition of COX-2 activity).
Three milliliters (mL) of assay buffer concentrate (as provided) was diluted with 27 mL HPLC-grade water to provide a final assay buffer (0.1M Tris-HCl, pH 8). This buffer assay solution was used to prepare heme and COX-2 enzyme assay solutions. […]
10 μl of 95 vol. % ethanol was then added to the background and negative control wells. […] The absorbance for each well was measured at 590 nm using a plate reader.
The inhibitory activity was calculated from these absorbance readings. […]

[1] = test system: carrageenan hind paw edema; test: rat hind paw edema assay, two studies (Example 4); type: in vivo, Long-Evans-derived rats; conditions: 1 h after carrageenan (positive control)
Experimental: Two studies were conducted. […] The anti-inflammatory extract product was administered to the groups at different dose protocols. Comparisons can be made relative to the negative and positive control animal groups. Groups 2 and 4 of the first and second study, and Groups 2 and 5 of the second study, received a single dose of the extract product one hour after hind paw injection of carrageenan (0.1 ml of a suspension of 1 wt. % carrageenan in […], intraplantar). Group 3 of both studies received a first dose of the extract product one hour before, and a second dose of the extract product one hour after, hind paw injection of carrageenan. […] Group 4 of the second study received a dose of the extract product one hour before administration of carrageenan. Group 5 of the first study and Group 6 of the second study received indomethacin, a commercially available nonsteroidal anti-inflammatory drug, one hour after hind paw injection of carrageenan. Indomethacin was administered as a positive control reference compound, and Groups 5 and 6 (of the first and second studies, respectively) represent positive control groups. The severity of the hind paw edema (i.e., hind paw volume) was recorded at 3 hours after, 5 hours after, and 24 hours after carrageenan administration using a plethysmometer (Ugo Basile, Italy). The hind paw volume measurements after carrageenan administration correspond to the amount of induced swelling, and a reduction in the percentage of increase in hind paw volume relative to the percentage of increase observed in hind paw volume for the negative control group corresponds to a reduction in inflammation. For example, the hind paw volume of the negative control group of the first study (Group 1) increased by about 45% whereas the hind paw volume of Group 2 (which received an Aframomum melegueta extract product) increased by only 25%.

[2] = test system: carrageenan hind paw edema; test: rat hind paw edema assay (Example 3); type: in vivo, Long-Evans-derived rats; conditions: 150 mg/kg; 3 h after carrageenan
Experimental: Hind paw edema models have been extensively described [see, for example, […] et al. (eds.), Inflammation Protocols, pp. 115-122 (2003)] and have been accepted as in vivo models of human inflammation. […] Aspirin was administered to another group of three Long-Evans rats at 150 mg/kg dose as a positive control reference compound. The severity of the hind paw edema (i.e., the hind paw volume) was recorded 3 hours after carrageenan administration using a plethysmometer (Ugo Basile, Italy). The hind paw volume measurements correspond to the amount of induced swelling, and therefore a reduction in the swelling corresponds to a reduction in inflammation. The anti-inflammatory activity of the Aframomum melegueta extract products can be expressed as a percentage of edema reduction (relative to the negative control (i.e., full edema)).

[3] = test system: acetic acid-induced writhing; test: acetic acid-induced writhing assay; type: in vivo, mice; conditions: 100 mg/kg
Experimental: This writhing assay has been previously described [Inoue et al., Arzneimittelforschung, 41(3):235-239 (1991).] […] An aqueous solution comprising 2 vol. % Tween 80 was administered as a negative control to another group of three mice. Aspirin was administered at 100 mg/kg as a positive control to a fourth group of three mice. The number of writhings per animal group was observed during the period beginning at about five minutes after acetic acid challenge and ending at about ten minutes after acetic acid challenge. The average number of writhings per animal group is an indication of pain, e.g., inflammation-induced pain, and therefore a reduction in the number of writhings per unit time per animal group corresponds to a reduction in inflammation. The reduction in number of writhings can be expressed relative to the negative control value as a percentage of inflammation inhibition.

[4] = first study Group 5: 15 mg/kg, 3 h
[5] = first study Group 5: 15 mg/kg, 5 h
[6] = first study Group 5: 15 mg/kg, 24 h
[7] = second study Group 6: 15 mg/kg, 3 h
[8] = second study Group 6: 15 mg/kg, 5 h
[9] = second study Group 6: 15 mg/kg, 24 h

CCCCCCCC(=O)CCc1ccc(O)c(OC)c1 (single isomer, unassigned) [first peak, [6]-paradol]
COX-2 inhibitory activity (COX-2 enzyme; 1 mg/mL): 74%

CCCCCCCC(=O)CCc1ccc(O)c(OC)c1 (single isomer, unassigned) [second peak, [6]-paradol]
inhibition at 1000 µg/mL (COX-2 enzyme; read-out: COX-2 inhibitory activity, 1 mg/mL): 83%

COc1ccc2c(c1)c(CC(=O)O)c(C)n2C(=O)c1ccc(Cl)cc1 [Indomethacin, indomethacin]
Increase in rat hind paw volume after carrageenan administration [1, 4]: 44% | rat hind paw volume after carrageenan administration [1, 4]: 1.51 ± 0.05 mL | Increase in rat hind paw volume after carrageenan administration [1, 5]: 29% | rat hind paw volume after carrageenan administration [1, 5]: 1.35 ± 0.08 mL | Increase in rat hind paw volume after carrageenan administration [1, 6]: 12% | rat hind paw volume after carrageenan administration [1, 6]: 1.18 ± 0.1 mL | Increase in rat hind paw volume after carrageenan administration [1, 7]: 44% | rat hind paw volume after carrageenan administration [1, 7]: 1.51 ± 0.05 mL | Increase in rat hind paw volume after carrageenan administration [1, 8]: 29% | rat hind paw volume after carrageenan administration [1, 8]: 1.35 ± 0.08 mL | Increase in rat hind paw volume after carrageenan administration [1, 9]: 12% | rat hind paw volume after carrageenan administration [1, 9]: 1.18 ± 0.1 mL

CC(=O)Oc1ccccc1C(=O)O [aspirin]
reduction of hind paw edema [2]: about 43% | percentage of inflammation inhibition (writhing) [3]: 80% | average number of writhings per animal group ([3]; 5-10 min after challenge): 3
